Measured values as given in article PMC3376194 (Pharmacogenetics and Genomics, 2012).
Where “and” joins values, the source holds several entries; their conditions need not be identical. Equal values may be shown once. Read-outs that look alike come from different tables or passages of the source.

Experiments:
wildtype human PGHS-1 [1] = target: T1, wildtype human PGHS-1 (Homo sapiens, UniProt P23219); assay: Reversible COX inhibition by NS-398, substrate dependence of COX activity; format: biochemical; conditions: double reciprocal plot
T1 sequence (P23219 24-599): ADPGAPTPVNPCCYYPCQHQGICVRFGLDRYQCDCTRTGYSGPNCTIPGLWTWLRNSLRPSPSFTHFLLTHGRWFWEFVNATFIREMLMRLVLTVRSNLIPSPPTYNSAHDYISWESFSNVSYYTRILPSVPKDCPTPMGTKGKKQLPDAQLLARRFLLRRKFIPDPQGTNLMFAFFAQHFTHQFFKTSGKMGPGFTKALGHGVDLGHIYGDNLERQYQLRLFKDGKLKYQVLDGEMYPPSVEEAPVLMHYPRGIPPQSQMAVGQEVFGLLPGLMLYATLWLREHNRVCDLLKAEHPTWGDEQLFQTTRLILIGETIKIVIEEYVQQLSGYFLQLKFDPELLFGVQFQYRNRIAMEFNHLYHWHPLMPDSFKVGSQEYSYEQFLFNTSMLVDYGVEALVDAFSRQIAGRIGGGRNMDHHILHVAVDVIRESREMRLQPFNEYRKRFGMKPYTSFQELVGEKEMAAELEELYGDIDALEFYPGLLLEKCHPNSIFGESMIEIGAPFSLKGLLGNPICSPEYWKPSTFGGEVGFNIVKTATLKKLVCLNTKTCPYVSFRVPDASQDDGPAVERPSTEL

PGHS-1 [2] = conditions: cited from earlier work
wildtype human PGHS-1 [3] = target: T1, wildtype human PGHS-1; assay: COX kinetic parameters, oxygen uptake vs arachidonate; format: biochemical; conditions: read-out: COX Km (μM arachidonate), WT, 37 °C, 100 μM HOOH
[4] = target: T2, R108Q variant of human PGHS-1 (Homo sapiens, UniProt P23219, R108Q); assay: as above; format: biochemical
T2 sequence (P23219 24-599 R108Q): as the sequence (P23219 24-599) above, with R85Q counted along it

PGHS-1 L237M variant [5] = target: T3, PGHS-1 L237M variant (Homo sapiens, UniProt P23219, L237M); assay: as above; format: biochemical; conditions: read-out: COX Km (μM arachidonate), 0.025% Tween 20, 37 °C
T3 sequence (P23219 24-599 L237M): as the sequence (P23219 24-599) above, with L214M counted along it

PGHS-1 V481I variant [6] = target: T4, PGHS-1 V481I variant (Homo sapiens, UniProt P23219, V481I); assay: as above; format: biochemical; conditions: read-out: COX Km (μM arachidonate), 0.025% Tween 20, 37 °C
T4 sequence (P23219 24-599 V481I): as the sequence (P23219 24-599) above, with V458I counted along it

COX-1 = conditions: cited from earlier work
wildtype human PGHS-1 [7] = target: T1, wildtype human PGHS-1; assay: Timed preincubation with aspirin, decay of surviving COX activity; format: biochemical; conditions: WT; 37 °C; preincubation with 0.4-5.3 mM aspirin; average ± SD
PGHS-1 R53H variant = PGHS-1 R53H variant (Homo sapiens, UniProt P23219, R53H); assay: as above; format: biochemical; conditions: 37 °C, preincubation with 0.4-5.3 mM aspirin, average ± SD
PGHS-1 R53H variant, sequence (P23219 24-599 R53H): as the sequence (P23219 24-599) above, with R30H counted along it

[8] = target: T2, R108Q variant of human PGHS-1; assay: as above; format: biochemical
PGHS-1 L237M variant [9] = target: T3, PGHS-1 L237M variant; assay: as above; format: biochemical; conditions: 37 °C, preincubation with 0.4-5.3 mM aspirin, average ± SD
PGHS-1 V481I variant [10] = target: T4, PGHS-1 V481I variant; assay: as above; format: biochemical; conditions: 37 °C, preincubation with 0.4-5.3 mM aspirin, average ± SD
[11] = target: T2, R108Q variant of human PGHS-1; assay: Analysis of Ki and k2 values for aspirin; format: biochemical; conditions: 20 °C, aspirin potassium salt
ovine PGHS-1 = conditions: cited from earlier work
PGHS-1 [12] = conditions: in blood ex vivo; cited from earlier work
[13] = hydrolysis in blood; cited from earlier work
[14] = ingestion of 500-650 mg aspirin; cited from earlier work

**Q.** For `CS(=O)(=O)Nc1ccc([N+](=O)[O-])cc1OC1CCCCC1` [NS-398], which “Type of COX inhibition” value (wildtype human PGHS-1 [1]) is on record?
**A.** reversible, competitive inhibitor

**Q.** And the “Antagonism of PGHS-1 inactivation by aspirin” value (PGHS-1 [2])?
**A.** potent antagonist

**Q.** What about the “Effect on COX catalysis” value (PGHS-1 [2]; even at low arachidonate levels) of the same compound?
**A.** lack effect on COX catalysis

**Q.** Which Km (wildtype human PGHS-1 [3]; 0.025% Tween 20) does the source give for `CCCCC/C=C\C/C=C\C/C=C\C/C=C\CCCC(=O)O` [arachidonate] here?
**A.** 1.5 ± 0.4 µM

**Q.** What about the Km (wildtype human PGHS-1 [3]; 0.165% Tween 20) of the same compound?
**A.** 19.8 ± 3.7 µM

**Q.** What about the “Elevated arachidonate Km compared to wildtype” value [4] of the same compound?
**A.** 1.9 fold

**Q.** And the “Km value above the wildtype value” ([4]; 0.165% Tween 20)?
**A.** 50%

**Q.** What about the Km ([4]; read-out: COX Km (μM arachidonate), 0.025% Tween 20, 37 °C) of the same compound?
**A.** 2.8 ± 0.4 µM

**Q.** And the Km ([4]; read-out: COX Km (μM arachidonate), 0.165% Tween 20, 37 °C)?
**A.** 29.7 ± 3.3 µM

**Q.** And the “Increase in Km value vs wildtype” value ([4]; standard conditions)?
**A.** 86%

**Q.** And the Km (PGHS-1 L237M variant [5])?
**A.** 1.8 ± 0.3 µM

**Q.** What about the Km (PGHS-1 V481I variant [6]) of the same compound?
**A.** 1.8 ± 0.2 µM

**Q.** For `O=C(O)c1ccccc1O` [salicylic acid], which COX-1 inhibition (COX-1) is on record?
**A.** negligible COX-1 inhibitor

**Q.** With `CC(=O)Oc1ccccc1C(=O)O` [aspirin, acetylsalicylic acid] as the compound, how does the “Aspirin reactivity (relative), k2'/[aspirin] normalized to wildtype value” (wildtype human PGHS-1 [7]) read?
**A.** 1.00 ± 0.10 (n = 9)

**Q.** What about the “Aspirin reactivity (relative), k2'/[aspirin] normalized to wildtype value” (PGHS-1 R53H variant) of the same compound?
**A.** 0.91 ± 0.07 (n = 9) p = 0.042

**Q.** And the “Lower aspirin reactivity compared to wildtype” value ([8]; R108Q vs wildtype)?
**A.** 60%

**Q.** What about the “k2'/aspirin (≈ k2/Ki) as percent of the wildtype value” ([8]; R108Q, 37 °C) of the same compound?
**A.** 40%

**Q.** What about the “Aspirin reactivity (relative), k2'/[aspirin] normalized to wildtype value” ([8]; R108Q, 37 °C, preincubation with 0.4-5.3 mM aspirin, average ± SD) of the same compound?
**A.** 0.40 ± 0.05 (n = 7) p = 0.0001

**Q.** What about the “Aspirin reactivity (relative), k2'/[aspirin] normalized to wildtype value” (PGHS-1 L237M variant [9]) of the same compound?
**A.** 0.86 ± 0.05 (n = 9) p = 0.001

**Q.** What about the “Aspirin reactivity (relative), k2'/[aspirin] normalized to wildtype value” (PGHS-1 V481I variant [10]) of the same compound?
**A.** 0.82 ± 0.10 (n = 9) p = 0.001

**Q.** What about the “Decrease in k2 (rate constant for acetyl group transfer) vs wildtype” value [11] of the same compound?
**A.** 30%

**Q.** What about the “Increase in Ki for aspirin vs wildtype” value [11] of the same compound?
**A.** 70%

**Q.** What about the “k2/Ki as percent of that for wildtype” value [11] of the same compound?
**A.** 42%

**Q.** And the Aspirin reactivity (ovine PGHS-1; ovine PGHS-1, 30°C)?
**A.** 0.3 mM⁻¹ min⁻¹

**Q.** And the Ki (ovine PGHS-1; read-out: Ki for aspirin, PGHS-1 (ovine))?
**A.** ~20 mM and 14 to 20 mM

**Q.** And the IC50 (PGHS-1 [12])?
**A.** 2000 nM

**Q.** What about the “t1/2 of aspirin in blood” value [13] of the same compound?
**A.** ~ 15 min

**Q.** And the “Peak plasma aspirin level” value [14]?
**A.** 30 to 80 µM

**Q.** What about the “Time of plasma aspirin peak” value [14] of the same compound?
**A.** ~ 30 min
